US7829576B2 (priority 2008, dated 2010)
Entries after “also recorded” stand apart in the source; their conditions may differ.

Columns and labels:
pain intensity = details: study completers, double-blind placebo-controlled; cited from earlier work
CYP2D6 [1] = molecular target: T1, CYP2D6 (Homo sapiens, UniProt P10635); assay: CYP2D6 inhibition screening, recombinant enzyme, MAMC substrate; assay type: in vitro ADME
T1 construct: purchased BD Bioscience
Method: Protocol. […] The source of the enzyme was microsomes containing human recombinant CYP2D6 obtained from BD Bioscience. Conversion of MAMC to 7-hydroxy-4-(aminomethyl)coumarin was measured using a PerkinElmer Fusion with a 390 nm excitation filter and a 460 nm emission filter.

5HT2C receptor = molecular target: T2, 5HT2C receptor (Homo sapiens, UniProt P28335); details: published report; cited from earlier work
T2 sequence (P28335 33-458): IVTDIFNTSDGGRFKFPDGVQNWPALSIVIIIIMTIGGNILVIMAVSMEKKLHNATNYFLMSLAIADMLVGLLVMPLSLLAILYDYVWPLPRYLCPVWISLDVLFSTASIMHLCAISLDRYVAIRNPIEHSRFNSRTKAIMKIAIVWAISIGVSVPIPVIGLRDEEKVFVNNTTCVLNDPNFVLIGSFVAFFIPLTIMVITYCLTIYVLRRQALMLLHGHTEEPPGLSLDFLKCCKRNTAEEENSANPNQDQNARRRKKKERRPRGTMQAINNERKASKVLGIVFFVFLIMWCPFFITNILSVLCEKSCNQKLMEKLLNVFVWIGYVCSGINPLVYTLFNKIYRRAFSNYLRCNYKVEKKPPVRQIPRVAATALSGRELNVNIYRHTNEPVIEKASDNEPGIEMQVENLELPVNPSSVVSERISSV

male ICR mice = assay: Acetic acid-induced writhing (visceral pain); assay type: in vivo, mouse
Method: Protocol. […] Five minutes after treatment with acetic acid, the number of writhes was counted for 10 min. A writhe is defined as the extension of both front and hind limbs with a concave stretch of the abdomen. The mean number of writhes was determined for each treatment group and the percent inhibition of the vehicle response was calculated using the following formula: […]

major depression = details: subsequent clinical trials; cited from earlier work
[2] = single dose, 10 to 500 mg; cited from earlier work
human volunteers = details: 25-400 mg, cited from earlier work
L5 SNL rats [3] = assay: L5 SNL model of neuropathic pain, tactile allodynia (von Frey); assay type: in vivo, rat; details: for antiallodynic effect over time, oral: 60 mg/kg PO
[4] = test system: noradrenergic, histaminergic and cholinergic receptors; details: published report; cited from earlier work
CYP2D6 [5] = molecular target: T1, CYP2D6; assay: CYP2D6 inhibition (dextromethorphan O-demethylation) in human hepatic microsomes; assay type: in vitro ADME; details: pooled male human hepatic microsomes
Method: The 200 μL incubations were conducted in duplicate in 0.1 M potassium phosphate buffer (pH 7.4) with 0.02 mg of microsomal protein, 3 mM MgCl2, 1 mM EDTA and 7.5 μM of the probe substrate dextromethorphan in a 96-well polypropylene plate maintained at 37° C. After a 3-minute pre-incubation, the reaction was initiated with the addition of 2 mM NADPH. Upon completion of the 10-minute incubation period, aliquots of 100 μL were removed and added to a new plate containing 100 μL of internal standard in acidified acetonitrile to stop the reaction. The quenched samples were vortexed and the precipitated protein was removed by centrifugation. Supernatant aliquots of 100 μL were transferred to LC vials and 5 μL were injected onto the HPLC system for LC/MS/MS analysis of the metabolite dextrorphan. Standards and quality control samples were similarly prepared using authentic dextrorphan standards.
Dexthorphan concentrations were determined by high performance liquid chromatography with tandem mass spectrometric detection (LC/MS/MS) after protein precipitation with acidified acetonitrile containing internal standard. Separations were performed with a Flux Rheos 2000 quaternary pump (Leap Technologies, Inc., Carrboro, N.C.) using an XTerra® MS C18, 3.5 μm, 4.6×50 mm column (Waters Corporation, Milford, Mass.). […]

[6] = cited from earlier work
[7] = test system: rat hindpaw incisional model; assay: Rat hindpaw incisional pain model, tactile allodynia; assay type: in vivo; details: for antiallodynic effect over time: tested 30, 60, 120, 240 minutes
Method: Protocol. A time course experiment was performed with beloxepin in the hindpaw incision model. […] Protocol. […] Protocol.

Male Sprague-Dawley rats = assay: Rat hot plate model of acute nociceptive pain; assay type: in vivo; details: 30 and 60 mg/kg IP, 50° C. hot plate (FIGS. 6A, 6B)
Method: Protocol. […] For the experiment, rats were acclimated to a 50° C. hot plate apparatus by gently placing them on the hot plate with all four paws on the surface. A timer was started and the latency (in seconds) until the rat licked any of its paws was measured. A 60 second cut-off to elicit a response was set to prevent tissue damage to the paws. After the rats elicited the paw lick response, they were removed from the apparatus and returned to their home cages for at least 30 minutes. Baseline paw lick latencies were determined prior to drug treatments in an identical manner to the acclimation test. Following drug treatments, the rats were placed on the hot plate apparatus at the appropriate time and treatment paw lick latencies were determined. All test groups contained at least six animals.

noradrenaline reuptake = details: synaptosomes from rat and primate brain; cited from earlier work
FCA-treated rats = assay: FCA-induced mechanical hyperalgesia (inflammatory pain); assay type: in vivo, rat
Method: Protocol. […] For the assay, the methods of DeHaven-Hudkins et al., 1999, J. Pharmacol. Exp. Ther. 289:494-502 were used to determine mechanical hyperalgesia in rats 24 hours after intraplantar administration of 150 μL Freund's Complete Adjuvant (FCA). To determine paw pressure thresholds, the rats were lightly restrained in a gauze wrap and pressure was applied to the dorsal surface of the inflamed and uninflamed paw with a conical piston using a pressure analgesia apparatus (Stoelting Instruments, Wood Dale, Ill.). […] Paw pressure thresholds were determined before and at specified times after drug treatment. All test groups contained at least six animals. Protocol. A sample of (±)-beloxepin was prepared by milling the isolated (+)-beloxepin and (−)-beloxepin enantiomers together, bringing them up in solvent, and then removing the solvent (“Lot 9”). In this experiment, 30 mg/kg of (±)-beloxepin (“Lot 7”) or 30 mg/kg of the reconstituted racemic mixture (Lot 9) was administered in rats treated with FCA for 24 hours. Thirty minutes after treatment with vehicle, (±)-beloxepin, or reconstituted racemic mixture, paw pressure thresholds were determined. Thirty minutes is the time of peak mechanical antihyperalgesia of (±)-beloxepin.

[8] = test system: animal models of depression; details: preclinical models of depression; cited from earlier work
[9] = test system: patients hospitalized for depression; details: phase IIA; cited from earlier work
L5 SNL rats [10] = assay: L5 SNL model of neuropathic pain, tactile allodynia (von Frey); assay type: in vivo, rat
Method: Protocol. […] Neurosci. Methods 144:175-181. The test animals were placed in a Plexiglas chamber (10 cm×20 cm×25 cm) and habituated for 15 minutes. The chamber was positioned on top of a mesh screen so that von Frey monofilaments could be presented to the plantar surface of both hindpaws. Measurement of tactile sensitivity for each hind paw were obtained using the up/down method (Dixon, 1980, Annu Rev. Pharmacol. […] Each trial started with a von Frey force of 2 grams delivered to the right hind paw for approximately 1-2 seconds and then the left hind paw. If there was no withdrawal response, the next higher force was delivered. If there was a response, the next lower force was delivered. This procedure was performed until no response was made at the highest force (15 grams) or until four stimuli were administered following the initial response. The 50% paw withdrawal threshold for each paw was calculated using the following formula: […] Testing for tactile sensitivity was performed twice and the mean 50% withdrawal value assigned as the tactile sensitivity for the right and left paws for each animal. All test groups contained at least six animals. Protocol. […] In the experiment, animals were tested for tactile allodynia at 30 min post treatment. The sham-operated control group, which were operated on but not subject to nerve ligation, contained 4 animals. The treatment group contained at least six animals. Protocol. […] All test groups contained at least six animals. Protocol. […] The data obtained are depicted in FIG. 11.

T1 sequence (P10635 whole entry): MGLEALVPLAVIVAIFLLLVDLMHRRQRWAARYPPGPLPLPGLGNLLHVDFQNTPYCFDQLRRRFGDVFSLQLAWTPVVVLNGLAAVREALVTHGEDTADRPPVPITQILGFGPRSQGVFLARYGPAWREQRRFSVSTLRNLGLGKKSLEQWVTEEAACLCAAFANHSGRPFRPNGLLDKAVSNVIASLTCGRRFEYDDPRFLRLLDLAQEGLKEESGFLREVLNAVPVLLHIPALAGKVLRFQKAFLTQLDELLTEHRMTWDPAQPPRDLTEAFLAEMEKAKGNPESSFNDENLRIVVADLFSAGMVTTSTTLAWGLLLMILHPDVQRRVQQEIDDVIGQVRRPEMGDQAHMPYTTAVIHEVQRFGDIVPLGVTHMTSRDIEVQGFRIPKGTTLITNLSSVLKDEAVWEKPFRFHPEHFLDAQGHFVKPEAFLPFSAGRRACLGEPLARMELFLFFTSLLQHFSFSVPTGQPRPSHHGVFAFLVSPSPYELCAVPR

Compound: CNCCCC12CCC(c3ccccc31)c1ccccc12 [maprotiline]
- reduction in pain intensity (pain intensity): 45%

Compound: Cc1cccc2c1Oc1ccccc1C1(O)CCN(C)CC21 (racemic) [beloxepin, cis-1,2,3,4,4a,13b-hexahydro-2,10-dimethyldiben-[2,3:6,7]oxepino[4,5c]pyridine-4a-ol]]
- IC50 (CYP2D6 [1]; human recombinant CYP2D6 microsomes, read-out: CYP2D6 IC50 (initial screening, MAMC substrate)): 0.536 µM
- inhibition at 10 µM (CYP2D6 [1]; human, probe 7-methoxy-4-(aminomethyl)-coumarin (MAMC)): 97%
- affinity for the 5HT2C receptor (5HT2C receptor): modest affinity
- ED50 (male ICR mice; Mus musculus, oral, 25 min prior to 0.6% acetic acid IP (FIG. 8), read-out: ED50 inhibition of acetic acid-induced writhing): 13.3 mg/kg
- inhibition of acetic acid-induced writhing, dose dependence (male ICR mice; oral (FIG. 8)): dose-dependent fashion
- efficacy for the treatment of major depression (major depression): insufficient efficacy
- t1/2 [2]: 11 to 15 h
- tmax [2]: one to four
- total duration of nocturnal REM sleep (human volunteers; EEG): decreased total duration of nocturnal REM sleep
- REM latency (human volunteers; acutely and sub-chronically, EEG): dose-dependently prolonged REM latency
- sedation or other side effects in sleep studies (human volunteers; human volunteers): No sedation or other side effects were observed
- tactile antiallodynic effect, % of that observed with sham-operated animals (L5 SNL rats [3]; 30 mg/kg IP (FIG. 2)): ~100%
- observed mean threshold (L5 SNL rats [3]; 30 mg/kg IP (FIG. 3)): approximately 15 g
- maximal antiallodynic effect, % of the threshold of vehicle-treated rats (L5 SNL rats [3]; 30 mg/kg IP, 14 days post surgery, 30 min post treatment (FIG. 1)): 829%
- antiallodynic effect over time (L5 SNL rats [3]; 30 mg/kg IP, 14 days post surgery, tested 30, 60, 120, 240 min): significant antiallodynia effects at the 30, 60 and 120 min time points
- antiallodynic effect, % of the threshold for vehicle-treated rats (L5 SNL rats [3]; 30 mg/kg IP, 16 days post surgery, 30 min post treatment (FIG. 2)): 852%
- antiallodynic effect over time, oral (L5 SNL rats [3]; 7 days post surgery, tested 30, 60, 120, 240 min (FIG. 10)): significant antiallodynic effects at all four time points
- antiallodynic effect over time, oral (L5 SNL rats [3]; 8 days post surgery, tested 30, 60, 120, 240 min (FIG. 4)): significant and robust antiallodynic effects at the 30 and 60 min time points
- antiallodynic effect compared with duloxetine, amitriptyline, reboxetine (L5 SNL rats [3]; each 30 mg/kg IP (FIG. 5)): the most effective of the compounds tested
- affinity for noradrenergic, histaminergic and cholinergic receptors [4]: no or very weak affinity
- IC50 (CYP2D6 [5]): 31.7 µM
- t1/2, steady state ([6]; healthy normal subjects, 50 to 800 mg): 12 to 14 h
- adverse effects in healthy volunteers ([6]; up to 800 mg/day): No important adverse effects were observed
- maximum hindpaw withdrawal threshold ([7]; 3 mg/kg IV, 24 hours post-surgery, 30 minute time point (FIG. 14)): ~21 grams
- antiallodynic effect over time ([7]; 3 mg/kg IV): significant antiallodynic effect at the 30 and 120 minute time points
- maximum threshold, % of the threshold value for vehicle treated rats ([7]; 30 mg/kg IP, 30 minute time point (FIG. 12)): 544%
- maximum hindpaw withdrawal threshold ([7]; 30 mg/kg IP, 24 hours post surgery, 30 minute time point (FIG. 12)): ~29 grams
- antiallodynic effect over time ([7]; 30 mg/kg IP): significant antiallodynic effect at all four time points
- maximum hindpaw withdrawal threshold ([7]; 60 mg/kg PO, 24 hours post-surgery, 30 and 60 minute time points (FIG. 13)): ~24 grams
- antiallodynic effect over time ([7]; 60 mg/kg PO): significant antiallodynic effect at all four time points
- 3 mg/kg IV dose lower than a dose that produced a significant respiratory or cardiovascular side effect ([7]; IV, rats): 10 fold
- anti-nociceptive activity (paw lick latency) (Male Sprague-Dawley rats): nearly as effective as 3 mg/kg morphine; also recorded: almost equivalent to that of 3 mg/kg morphine
- affinity for other monoamine carriers (serotonin and dopamine transporters) less than for noradrenaline reuptake (noradrenaline reuptake): greater than 100 fold
- reversal of FCA-induced hyperalgesia (FCA-treated rats; 30 mg/kg (FIG. 7)): nearly completely reversed hyperalgesia; also recorded: nearly complete reversal of hyperalgesia
- mechanical antihyperalgesic efficacy (FCA-treated rats; 30 mg/kg IP, 24 hours after FCA, 30 min after treatment (FIG. 9)): 96±16%
- sedation, motor impairment, side effects in animal tests [8]: did not cause sedation, motor impairment or other untoward side effects
- fraction of patients with a moderate to good response (HAMD score reduction) [9]: ⅔
- side effects following treatment (L5 SNL rats [10]; 30 mg/kg IP, L5 SNL rats): No side effects were observed
- antiallodynic efficacy compared with duloxetine (L5 SNL rats [10]; each 30 mg/kg IP (FIG. 11)): comparable in efficacy to duloxetine
- peak antiallodynic effect compared with esreboxetine (L5 SNL rats [10]; each 30 mg/kg IP (FIG. 11)): greater than that measured in rats treated with esreboxetine

Compound: Fc1ccc([C@@H]2CCNC[C@H]2COc2ccc3c(c2)OCO3)cc1 [paroxetine]
- reduction in pain intensity (pain intensity): 26%
